Measurements published in article PMC8571316 (Scientific Reports, 2021).
Peptide text beside a SMILES is read from it. * marks the point of attachment. Biotin = O=C1N[C@H]2[C@H](CS[C@H]2CCCCC(=O)*)N1; PEG4 = NCCOCCOCCOCCOCCC(=O)O

Test system: Influenza HA
Assay type: binding

SMILES: CC(C)C[C@H](NC(=O)[C@H](CC(=O)O)NC(=O)[C@H](CCC(=O)O)NC(=O)[C@H](Cc1c[nH]c2ccccc12)NC(=O)[C@H](CCC(=O)O)NC(=O)[C@H](CC(C)C)NC(=O)[C@H](CC(N)=O)NC(=O)[C@H](Cc1ccccc1)NC(=O)[C@@H](NC(=O)[C@H](Cc1ccccc1)NC(=O)[C@H](CC(C)C)NC(=O)[C@H](Cc1ccccc1)NC(=O)[C@H](CC(C)C)NC(=O)[C@@H](NC(=O)[C@H](Cc1c[nH]c2ccccc12)NC(=O)[C@H](CC(=O)O)NC(=O)CCOCCOCCOCCOCCNC(=O)CCCC[C@@H]1SC[C@@H]2NC(=O)N[C@@H]21)[C@@H](C)O)C(C)C)C(=O)N[C@@H](Cc1ccccc1)C(=O)N[C@@H](Cc1ccc(O)cc1)C(=O)O [Peptide P89] ({Biotin-PEG4}-DWTLFLFVFNLEWEDLFY-OH; C-terminus assumed)
- cross-reactivity (selectivity of binding, in words): some level of cross-reactivity

SMILES: CC[C@H](C)[C@H](NC(=O)[C@H](CCC(=O)O)NC(=O)[C@H](Cc1ccc(O)cc1)NC(=O)[C@H](Cc1ccc(O)cc1)NC(=O)[C@H](CCSC)NC(=O)[C@H](Cc1c[nH]cn1)NC(=O)[C@H](CCSC)NC(=O)[C@H](Cc1c[nH]c2ccccc12)NC(=O)[C@H](CCCCN)NC(=O)[C@H](CC(=O)O)NC(=O)[C@H](Cc1c[nH]c2ccccc12)NC(=O)[C@H](CCC(=O)O)NC(=O)[C@@H](NC(=O)[C@H](CCCCN)NC(=O)CCOCCOCCOCCOCCNC(=O)CCCC[C@@H]1SC[C@@H]2NC(=O)N[C@@H]21)[C@@H](C)O)C(=O)N[C@@H](Cc1ccccc1)C(=O)N[C@@H](Cc1ccc(O)cc1)C(=O)N[C@@H](CCC(=O)O)C(=O)N[C@@H](CC(=O)O)C(=O)O [Peptide P100] ({Biotin-PEG4}-KTEWDKWMHMYYEIFYED-OH; C-terminus assumed)
- cross-reactivity (selectivity of binding, in words): some level of cross-reactivity

SMILES: CC[C@H](C)[C@H](NC(=O)[C@H](CC(=O)O)NC(=O)[C@H](Cc1ccccc1)NC(=O)[C@H](CC(N)=O)NC(=O)CCOCCOCCOCCOCCNC(=O)CCCC[C@@H]1SC[C@@H]2NC(=O)N[C@@H]21)C(=O)N[C@@H](CC(C)C)C(=O)N[C@@H](CC(C)C)C(=O)N[C@@H](Cc1ccccc1)C(=O)N[C@H](C(=O)N[C@@H](Cc1ccccc1)C(=O)N[C@@H](CC(N)=O)C(=O)N[C@@H](Cc1ccc(O)cc1)C(=O)N[C@@H](CCC(=O)O)C(=O)N[C@@H](CCSC)C(=O)N[C@@H](CCC(=O)O)C(=O)N[C@@H](CC(=O)O)C(=O)N[C@@H](CCCCN)C(=O)N[C@@H](Cc1ccccc1)C(=O)N[C@@H](Cc1ccc(O)cc1)C(=O)O)C(C)C [Peptide P168] ({Biotin-PEG4}-NFDILLFVFNYEMEDKFY-OH; C-terminus assumed)
- cross-reactivity (selectivity of binding, in words): some level of cross-reactivity

SMILES: CC[C@H](C)[C@H](NC(=O)[C@@H](NC(=O)[C@H](Cc1ccc(O)cc1)NC(=O)[C@H](Cc1ccccc1)NC(=O)[C@H](Cc1ccc(O)cc1)NC(=O)[C@@H](NC(=O)[C@H](CCC(=O)O)NC(=O)[C@H](CCSC)NC(=O)[C@H](Cc1c[nH]c2ccccc12)NC(=O)[C@H](Cc1c[nH]cn1)NC(=O)[C@H](CO)NC(=O)[C@H](Cc1ccccc1)NC(=O)[C@H](CCSC)NC(=O)[C@H](CC(=O)O)NC(=O)[C@H](Cc1c[nH]c2ccccc12)NC(=O)[C@H](CC(=O)O)NC(=O)[C@@H](NC(=O)[C@H](CCCCN)NC(=O)CCOCCOCCOCCOCCNC(=O)CCCC[C@@H]1SC[C@@H]2NC(=O)N[C@@H]21)[C@@H](C)O)[C@@H](C)CC)C(C)C)C(=O)O [Peptide P180] ({Biotin-PEG4}-KTDWDMFSHWMEIYFYVI-OH; C-terminus assumed)
- cross-reactivity (selectivity of binding, in words): some level of cross-reactivity
